From ChEMBL document CHEMBL3885861, “Open TG-GATES”

Organism: Rattus norvegicus
Assay: Open TG-GATES - Regimen: Daily Repeat
Format: toxicity, organism-based, Sprague-Dawley
Parameters: regimen Daily Repeat, gender Male, age 6 weeks
Details: in vivo, po, route gavage; for gamma-GTP / A/G / ALP / ALT / AST / BUN / CRE / Ca / Cl / DBIL / GLC / IP / K / LDH / Na / PL / RALB / TBIL / TC / TG / TP: tissue Plasma; for APTT / Bas / Eos / Fbg / Hb / Ht / Lym / MCH / MCHC / MCV / Mono / Neu / PT / Plat / RBC / Ret / WBC: tissue Blood; for KIDNEY_L / KIDNEY_R / KIDNEY_TOTAL: tissue Kidney; for LIVER: tissue Liver
[1] = 3 mg/kg, […], dose level Low, time 28 day
[2] = 10 mg/kg, 72 h, dose level Middle, time 3 day
[3] = 10 mg/kg, […], dose level Middle, time 7 day
[4] = 10 mg/kg, […], dose level Middle, time 14 day
[5] = 10 mg/kg, […], dose level Middle, time 28 day

CCN(CC)N=O [N-NITROSODIETHYLAMINE]
gamma-GTP (3 mg/kg, […], dose level Low, time 14 day): 1.2 IU/L | A/G [1]: 1.3 | ALP [1]: 685.6 IU/L | ALT [1]: 37.6 IU/L | AST [1]: 69.4 IU/L | BUN [1]: 15.6 mg/dL | CRE [1]: 0.5 mg/dL | Ca [1]: 10.2 mg/dL | Cl [1]: 103.2 meq/L | DBIL [1]: 0.1 mg/dL | GLC [1]: 203.8 mg/dL | IP [1]: 7 mg/dL | K [1]: 3.7 meq/L | LDH [1]: 198.4 IU/L | Na [1]: 141.6 meq/L | PL [1]: 142.2 mg/dL | RALB [1]: 3.4 g/dL | TBIL [1]: 0.2 mg/dL | TC [1]: 72 mg/dL | TG [1]: 109.8 mg/dL | TP [1]: 6 g/dL | gamma-GTP [1]: 1.6 IU/L | TERMINAL_BW [2]: 232.4 g | APTT [2]: 17.9 s | Bas [2]: 0.4% | Eos [2]: 1% | Fbg [2]: 224.4 mg/dL | Hb [2]: 13.7 g/dL | Ht [2]: 39.6% | Lym [2]: 80.6% | MCH [2]: 21.4 pg | MCHC [2]: 34.5% | MCV [2]: 62 fL | Mono [2]: 1.8% | Neu [2]: 15.6% | PT [2]: 11.9 s | Plat [2]: 144.5 x10_4/uL | RBC [2]: 639 x10_4/ul | Ret [2]: 5.5% | WBC [2]: 81.6 x10_2/uL | KIDNEY_L [2]: 1 g | KIDNEY_R [2]: 1 g | KIDNEY_TOTAL [2]: 2 g | LIVER [2]: 9.9 g | A/G [2]: 1.5 | ALP [2]: 927.8 IU/L | ALT [2]: 33.6 IU/L | AST [2]: 69 IU/L | BUN [2]: 14.4 mg/dL | CRE [2]: 0.4 mg/dL | Ca [2]: 10.6 mg/dL | Cl [2]: 103.4 meq/L | DBIL [2]: 0.09 mg/dL | GLC [2]: 186.6 mg/dL | IP [2]: 7.5 mg/dL | K [2]: 4.1 meq/L | LDH [2]: 186.8 IU/L | Na [2]: 140.8 meq/L | PL [2]: 126.4 mg/dL | RALB [2]: 3.3 g/dL | TBIL [2]: 0.1 mg/dL | TC [2]: 69 mg/dL | TG [2]: 75 mg/dL | TP [2]: 5.5 g/dL | gamma-GTP [2]: 1.4 IU/L | TERMINAL_BW [3]: 255.8 g | TERMINAL_BW [4]: 288.9 g | TERMINAL_BW [5]: 349 g | APTT [3]: 19.3 s | Bas [3]: 0.8% | Eos [3]: 1% | Fbg [3]: 210.6 mg/dL | Hb [3]: 14.7 g/dL | Ht [3]: 41.7% | Lym [3]: 80% | MCH [3]: 21.2 pg | MCHC [3]: 35.2% | MCV [3]: 60.3 fL | Mono [3]: 2.4% | Neu [3]: 15.8% | PT [3]: 12.3 s | Plat [3]: 139.2 x10_4/uL | RBC [3]: 693.4 x10_4/ul | Ret [3]: 3.4% | WBC [3]: 94.2 x10_2/uL | APTT [4]: 18.7 s | Bas [4]: 1% | Eos [4]: 1.2% | Fbg [4]: 212 mg/dL | Hb [4]: 16 g/dL | Ht [4]: 44.8% | Lym [4]: 75.2% | MCH [4]: 21.4 pg | MCHC [4]: 35.6% | MCV [4]: 60.2 fL | Mono [4]: 2.6% | Neu [4]: 20% | PT [4]: 12.8 s | Plat [4]: 135.1 x10_4/uL | RBC [4]: 745.2 x10_4/ul | Ret [4]: 3% | WBC [4]: 125 x10_2/uL | APTT [5]: 17.1 s | Bas [5]: 0.6% | Eos [5]: 0.8% | Fbg [5]: 197.8 mg/dL | Hb [5]: 16.8 g/dL | Ht [5]: 45.5% | Lym [5]: 77.4% | MCH [5]: 20.6 pg | MCHC [5]: 36.9% | MCV [5]: 55.9 fL | Mono [5]: 2.4% | Neu [5]: 18% | PT [5]: 12.7 s | Plat [5]: 115.5 x10_4/uL | RBC [5]: 815 x10_4/ul | Ret [5]: 1.9% | WBC [5]: 126.6 x10_2/uL | KIDNEY_L [3]: 1 g | KIDNEY_R [3]: 1 g | KIDNEY_TOTAL [3]: 2.1 g | KIDNEY_L [4]: 1.1 g | KIDNEY_R [4]: 1.1 g | KIDNEY_TOTAL [4]: 2.3 g | KIDNEY_L [5]: 1.2 g | KIDNEY_R [5]: 1.2 g | KIDNEY_TOTAL [5]: 2.3 g | LIVER [3]: 10.2 g | LIVER [4]: 9.6 g | LIVER [5]: 9.3 g | A/G [3]: 1.7 | ALP [3]: 860.8 IU/L | ALT [3]: 36.2 IU/L | AST [3]: 78 IU/L | BUN [3]: 13.6 mg/dL | CRE [3]: 0.4 mg/dL | Ca [3]: 10.4 mg/dL | Cl [3]: 104.2 meq/L | DBIL [3]: 0.1 mg/dL | GLC [3]: 190.2 mg/dL | IP [3]: 7.4 mg/dL | K [3]: 4 meq/L | LDH [3]: 236.4 IU/L | Na [3]: 141.2 meq/L | PL [3]: 131 mg/dL | RALB [3]: 3.3 g/dL | TBIL [3]: 0.2 mg/dL | TC [3]: 71.4 mg/dL | TG [3]: 59.2 mg/dL | TP [3]: 5.3 g/dL | gamma-GTP [3]: 1.2 IU/L | A/G [4]: 1.6 | ALP [4]: 1173 IU/L | ALT [4]: 52.8 IU/L | AST [4]: 91.4 IU/L | BUN [4]: 15 mg/dL | CRE [4]: 0.5 mg/dL | Ca [4]: 10.5 mg/dL | Cl [4]: 101.6 meq/L | DBIL [4]: 0.1 mg/dL
